Assay results taken from patent US7196077B2, “Tachykinin antagonists” (Glaxo Group Limited, priority 2001, dated 2007).
Structures can show the parent of a compound that is named as a salt.

Molecular target: T1, recombinant human NK1 receptors (Homo sapiens, UniProt P25103)
T1 construct: expressed in transfected cells; host or cells: Chinese Hamster Ovary (CHO) cells, membrane preparation
Test: NK1-receptor binding affinity, displacement of [3H]-substance P
Conditions: negative logarithm of Ki; displacement of [3H]-substance P from recombinant human NK1 receptors in CHO cell membranes; average of at least two determinations
Method: NK1-receptor binding affinity has been determined in vitro by the compounds' ability to displace [3H]-substance P (SP) from recombinant human NK1 receptors expressed in Chinese Hamster Ovary (CHO) cell membranes.
CHO cell membranes were prepared by using a modification of the method described by Dam T and Quirion R (Peptides, 7: 855–864, 1986). Thus ligand binding was performed in 0.4 mL of 50 mM HEPES, pH 7.4, containing 3 mM MnCl2, 0.02% BSA, 0.5 nM [^3H]-Substance P (30÷56 Ci/mmol, Amersham), a final membrane concentration of 25 μg of protein/ml, and the test compounds. The incubation proceeded at room temperature for 40 min. Non-specific binding was determined using excess of Substance P (1 μM) and represents about 6% of the total binding.
The affinity of the compound of the invention for NK1 receptor was determined using the NK1-receptor binding affinity method measuring in vitro by the compounds' ability to displace [3H]-substance P (SP) from recombinant human NK1 receptors expressed in Chinese Hamster Ovary (CHO) cell membranes. The affinity values are expressed as negative logarithm of the inhibition constant (Ki) of displacer ligands (pKi).

T1 sequence (P25103 whole entry): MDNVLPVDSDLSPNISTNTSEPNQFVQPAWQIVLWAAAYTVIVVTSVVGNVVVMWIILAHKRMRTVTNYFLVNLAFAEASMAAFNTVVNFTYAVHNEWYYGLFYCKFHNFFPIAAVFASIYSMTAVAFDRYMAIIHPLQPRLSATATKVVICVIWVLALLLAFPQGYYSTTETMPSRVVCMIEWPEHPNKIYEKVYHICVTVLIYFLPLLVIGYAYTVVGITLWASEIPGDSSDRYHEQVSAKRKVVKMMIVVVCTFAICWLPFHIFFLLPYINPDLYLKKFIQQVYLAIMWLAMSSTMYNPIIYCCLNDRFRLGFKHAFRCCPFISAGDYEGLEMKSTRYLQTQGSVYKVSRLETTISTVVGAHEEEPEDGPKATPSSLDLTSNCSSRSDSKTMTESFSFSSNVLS

| Ki [nM] | Structure (SMILES) |
| --- | --- |
| 0.0479 | Cc1cc(F)ccc1[C@H]1CNCCCN1C(=O)N(C)[C@@H](C)c1cc(C(F)(F)F)cc(C(F)(F)F)c1 [Example 7, 2-(S)-(4-Fluoro-2-methyl-phenyl)-[1,4]-diazepane-1-carboxylic acid, [1-(S)-(3,5-bis-trifluoromethyl-phenyl)-ethyl]-methylamide hydrochloride] |
| 0.0309 | Cc1cc(F)ccc1[C@H]1CCN(C)CCN1C(=O)N(C)[C@H](C)c1cc(C(F)(F)F)cc(C(F)(F)F)c1 [Example 15, 7-(R)-(4-Fluoro-2-methyl-phenyl)-4-methyl-[1,4]-diazepane-1-carboxylic acid, [1-(R)-(3,5-bis-trifluoromethyl-phenyl)-ethyl]-methylamide hydrochloride.] |
| 0.0457 | Cc1cc(F)ccc1[C@H]1CCNCCN1C(=O)N(C)[C@@H](C)c1cc(C(F)(F)F)cc(C(F)(F)F)c1 [Example 8, 7-(R)-(4-Fluoro-2-methyl-phenyl)-[1,4]-diazepane-1-carboxylic acid, [1-(S)-(3,5-bis-trifluoromethyl-phenyl)-ethyl]-methylamide hydrochloride] |
| 0.0977 | Cc1cc(F)ccc1[C@H]1CCNCCN1C(=O)N(C)Cc1cc(Cl)cc(Cl)c1 [Example 6, 7-(R)-(4-Fluoro-2-methyl-phenyl)-[1,4]-diazepane-1-carboxylic acid, (3,5-dichloro-benzyl)-methylamide hydrochloride] |
| 0.0724 | Cc1cc(F)ccc1[C@H]1CCNCCN1C(=O)N(C)Cc1cc(C(F)(F)F)cc(C(F)(F)F)c1 [Example 2, 7-(R)-(4-Fluoro-2-methyl-phenyl)-[1,4]-diazepane-1-carboxylic acid, (3,5-bis-trifluoromethyl-benzyl)-methylamide hydrochloride] |
| 0.501 | CN(Cc1cc(C(F)(F)F)cc(C(F)(F)F)c1)C(=O)N1CCCNC[C@@H]1c1ccc(F)cc1 [Example 12a, 2-(S)-(4-Fluoro-phenyl)-[1,4]-diazepane-1-carboxylic acid, (3,5bis-trifluoromethyl-benzyl)-methylamide hydrochloride] |
| 0.0195 | Cc1cc(F)ccc1[C@H]1CCNCCN1C(=O)N(C)[C@H](C)c1cc(C(F)(F)F)cc(C(F)(F)F)c1 [Example 4, 7-(R)-(4-Fluoro-2-methyl-phenyl)-[1,4]-diazepane-1-carboxylic acid, [1-(R)-(3,5-bis-trifluoromethyl-phenyl)-ethyl]-methylamide hydrochloride] |
| 0.0347 | Cc1cc(F)ccc1[C@H]1CNCCCN1C(=O)N(C)Cc1cc(C(F)(F)F)cc(C(F)(F)F)c1 [Example 1, 2-(S)-(4-Fluoro-2-methyl-phenyl)-[1,4]-diazepane-1-carboxylic acid, (3,5-bis-trifluoromethyl-benzyl)-methylamide hydrochloride] |
| 0.295 | Cc1cc(F)ccc1[C@H]1CCN(C)CCN1C(=O)N(C)Cc1cc(Cl)cc(Cl)c1 [Example 13, 7-(R)-(4-Fluoro-2-methyl-phenyl)-4-methyl-[1,4]-diazepane-1-carboxylic acid, (3,5-dichloro-benzyl)-methylamide hydrochloride] |
| 0.0562 | Cc1cc(F)ccc1[C@H]1CCN(C)CCN1C(=O)N(C)Cc1cc(C(F)(F)F)cc(C(F)(F)F)c1 [Example 14, 7-(R)-(4-Fluoro-2-methyl-phenyl)-4-methyl-[1,4]-diazepane-1-carboxylic acid, (3,5-bis-trifluoromethyl-benzyl)-methylamide hydrochloride] |
| 0.0245 | Cc1cc(F)ccc1[C@H]1CNCCCN1C(=O)N(C)[C@H](C)c1cc(C(F)(F)F)cc(C(F)(F)F)c1 [Example 3, 2-(S)-(4-Fluoro-2-methyl-phenyl)-[1,4]-diazepane-1-carboxylic acid, [1-(R)-(3,5-bis-trifluoromethyl-phenyl)-ethyl]-methylamide hydrochloride] |
| 0.0661 | Cc1cc(F)ccc1[C@H]1CNCCCN1C(=O)N(C)Cc1cc(Cl)cc(Cl)c1 [Example 5, 2-(S)-(4-Fluoro-2-methyl-phenyl)-[1,4]-diazepane-1-carboxylic acid, (3,5-dichloro-benzyl)-methylamide hydrochloride] |
